Source: ChEMBL document CHEMBL1201862, “PubChem BioAssay data set” (2004)
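48-hour exposure; five concentrations; linearly interpolated endpoints. GI50: concentration for 50% inhibition of growth.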 The source made the active and inactive calls. No stated cut-off is given here; in the data, active = GI50 up to about 1.1 µM and inactive = higher.

Key:
Assay in all cases: growth of human tumour cells (NCI), 48 h
HOP-92 = tested on: HOP-92
SK-MEL-28 = tested on: SK-MEL-28
EKVX = tested on: EKVX
K562 = tested on: K562
HCT-15 = tested on: HCT-15
HCC 2998 = tested on: HCC 2998
SK-MEL-2 = tested on: SK-MEL-2
M14 = tested on: M14
UACC-257 = tested on: UACC-257
RXF 393 = tested on: RXF 393
UACC-62 = tested on: UACC-62
MOLT-4 = tested on: MOLT-4
COLO 205 = tested on: COLO 205
CAKI-1 = tested on: CAKI-1
NCI-H23 = tested on: NCI-H23
ACHN = tested on: ACHN
SF-268 = tested on: SF-268
NCI-H522 = tested on: NCI-H522
SNB-75 = tested on: SNB-75
UO-31 = tested on: UO-31

Structure (SMILES) | GI50 (HOP-92) | GI50 (SK-MEL-28) | GI50 (EKVX) | GI50 (K562) | GI50 (HCT-15) | GI50 (HCC 2998) | GI50 (SK-MEL-2) | GI50 (M14) | GI50 (UACC-257) | GI50 (RXF 393) | GI50 (UACC-62) | GI50 (MOLT-4) | GI50 (COLO 205) | GI50 (CAKI-1) | GI50 (NCI-H23) | GI50 (ACHN) | GI50 (SF-268) | GI50 (NCI-H522) | GI50 (SNB-75) | GI50 (UO-31)
O=C1CCCC1C(O)(C(F)(F)Cl)C(F)(F)Cl (configuration not stated) | > 10 µM (inactive) | > 10 µM (inactive) | > 10 µM (inactive) | > 10 µM (inactive) | > 10 µM | > 10 µM (inactive) | > 10 µM (inactive) | > 10 µM (inactive) | > 10 µM (inactive) | > 10 µM (inactive) | > 10 µM (inactive) | > 10 µM (inactive) | > 10 µM (inactive) | > 10 µM (inactive) | > 10 µM (inactive) | > 10 µM (inactive) | > 10 µM (inactive) | > 10 µM (inactive) | > 10 µM (inactive) | –
N#Cc1c(N2CCCC2)ncn(-c2ccccc2)c1=S | > 100 µM (inactive) | > 100 µM (inactive) | > 100 µM (inactive) | > 100 µM (inactive) | > 100 µM | > 100 µM (inactive) | > 100 µM (inactive) | > 100 µM (inactive) | > 100 µM (inactive) | > 100 µM (inactive) | 19.5 µM (inactive) | > 100 µM (inactive) | > 100 µM (inactive) | > 100 µM (inactive) | > 100 µM (inactive) | > 100 µM (inactive) | > 100 µM (inactive) | > 100 µM (inactive) | 94.8 µM (inactive) | > 100 µM (inactive)
COc1ccc(C[C@H]2COC(=O)[C@@H]2Cc2cccc(Br)c2)cc1OC | 12.1 µM (inactive) | 30.5 µM (inactive) | 29.4 µM (inactive) | 5.97 µM (inactive) | 29.7 µM | 24.5 µM (inactive) | 26 µM (inactive) | 14.4 µM (inactive) | 21.5 µM (inactive) | 23.6 µM (inactive) | 25.6 µM (inactive) | 8.75 µM (inactive) | 14 µM (inactive) | 15.3 µM (inactive) | 21.2 µM (inactive) | 18.6 µM (inactive) | 29.7 µM (inactive) | 19.5 µM (inactive) | 8.99 µM (inactive) | 22.9 µM (inactive)
O=C1CC(=O)NC(NN2C(=O)/C(=C/c3ccc(Cl)c(Cl)c3)N=C2c2ccccc2)=N1 | 27 µM (inactive) | 28.8 µM (inactive) | – | 13.7 µM (inactive) | 30.3 µM | 19.7 µM (inactive) | 14.1 µM (inactive) | 28.8 µM (inactive) | 34.2 µM (inactive) | 24.8 µM (inactive) | 15.7 µM (inactive) | 15.2 µM (inactive) | 18.8 µM (inactive) | 85.3 µM (inactive) | 26.7 µM (inactive) | 40.2 µM (inactive) | 24.5 µM (inactive) | 30.8 µM (inactive) | 24 µM (inactive) | 29.6 µM (inactive)
CC(=O)c1ccc(NC(=O)/C(CC(=O)/C=C/c2ccccc2)=N/NC(N)=S)cc1 | > 100 µM (inactive) | > 100 µM (inactive) | 47.2 µM (inactive) | 75.3 µM (inactive) | 60.5 µM | > 100 µM (inactive) | > 100 µM (inactive) | > 100 µM (inactive) | > 100 µM (inactive) | > 100 µM (inactive) | > 100 µM (inactive) | 46.5 µM (inactive) | – | > 100 µM (inactive) | 60 µM (inactive) | 66.1 µM (inactive) | > 100 µM (inactive) | 33.3 µM (inactive) | > 100 µM (inactive) | 41.1 µM (inactive)
NC(CP(=O)(O)O)C(=O)O (configuration not stated) | > 100 µM (inactive) | > 100 µM (inactive) | > 100 µM (inactive) | > 100 µM (inactive) | > 100 µM | > 100 µM (inactive) | > 100 µM (inactive) | > 100 µM (inactive) | > 100 µM (inactive) | > 100 µM (inactive) | > 100 µM (inactive) | > 100 µM (inactive) | > 100 µM (inactive) | > 100 µM (inactive) | > 100 µM (inactive) | > 100 µM (inactive) | > 100 µM (inactive) | > 100 µM (inactive) | > 100 µM (inactive) | > 100 µM (inactive)
